Test [1] has as its target T1, Mer (Homo sapiens, UniProt Q12866).
T1 construct: host or cells: 293A cells (Thermo Fisher #R70507)
T1 sequence (Q12866 21-999): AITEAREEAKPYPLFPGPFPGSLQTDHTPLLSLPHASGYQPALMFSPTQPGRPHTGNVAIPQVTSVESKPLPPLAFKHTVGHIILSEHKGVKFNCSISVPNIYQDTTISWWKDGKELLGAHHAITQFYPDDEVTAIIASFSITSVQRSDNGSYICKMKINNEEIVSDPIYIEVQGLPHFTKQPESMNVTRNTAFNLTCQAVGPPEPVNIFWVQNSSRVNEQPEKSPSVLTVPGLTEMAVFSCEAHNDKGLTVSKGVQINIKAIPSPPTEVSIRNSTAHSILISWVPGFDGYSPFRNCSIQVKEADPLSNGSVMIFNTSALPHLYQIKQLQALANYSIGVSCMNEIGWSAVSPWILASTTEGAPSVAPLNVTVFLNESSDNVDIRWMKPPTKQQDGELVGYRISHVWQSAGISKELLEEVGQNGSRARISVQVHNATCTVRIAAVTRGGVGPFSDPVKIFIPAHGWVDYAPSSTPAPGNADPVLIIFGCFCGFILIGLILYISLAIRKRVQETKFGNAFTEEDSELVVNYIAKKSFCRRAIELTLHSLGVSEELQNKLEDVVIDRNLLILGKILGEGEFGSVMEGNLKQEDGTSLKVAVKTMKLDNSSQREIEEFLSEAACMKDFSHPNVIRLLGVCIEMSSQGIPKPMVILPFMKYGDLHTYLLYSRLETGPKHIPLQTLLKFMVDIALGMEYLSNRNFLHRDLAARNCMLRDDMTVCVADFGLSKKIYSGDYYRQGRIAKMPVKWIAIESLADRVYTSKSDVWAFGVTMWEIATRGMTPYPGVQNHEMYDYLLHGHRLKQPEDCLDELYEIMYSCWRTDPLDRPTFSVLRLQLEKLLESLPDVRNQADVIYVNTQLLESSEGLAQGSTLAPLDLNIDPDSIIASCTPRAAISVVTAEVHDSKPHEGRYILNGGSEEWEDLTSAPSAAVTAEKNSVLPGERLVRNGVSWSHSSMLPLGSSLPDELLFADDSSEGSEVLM
Briefly: Mer autophosphorylation ELISA in transient transfected 293A cells. The test is classed as cell-based. The note with it: cellular activity; MERTK-transfected 293A cells, phospho-Mer ELISA. Summed up: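 293A cells transiently transfected with human MERTK DNA, then treated 1 h with 8-point compound dilutions in serum-free medium (0.3% DMSO). Phospho-Mer in lysates quantified by sandwich ELISA against phospho-Mer standard; normalised to DMSO (100%) and reference inhibitor (0%), IC50 from 4-parameter logistic fit.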
Background: ELISA stands for enzyme-linked immunosorbent assay.

The target in test [2] is KDR (Homo sapiens, UniProt P35968). Briefly: KDR autophosphorylation ELISA in HUVEC cells. The test is classed as cell-based. Also on record: endogenous in cells; host or cells: HUVEC (Lonza #C2519A). Particulars: cellular activity, VEGF165-stimulated, phospho-KDR ELISA. Summed up: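 Compound pretreatment (1 h, 0.3% DMSO) of serum-starved HUVEC preceded a 5 min pulse of 100 ng/mL VEGF165, after which cells were lysed. Phospho-KDR was quantified by ELISA relative to stimulated and unstimulated controls.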

A value given as a limit tells only on which side of the number the result lay.

KDR, sequence (P35968 20-1356): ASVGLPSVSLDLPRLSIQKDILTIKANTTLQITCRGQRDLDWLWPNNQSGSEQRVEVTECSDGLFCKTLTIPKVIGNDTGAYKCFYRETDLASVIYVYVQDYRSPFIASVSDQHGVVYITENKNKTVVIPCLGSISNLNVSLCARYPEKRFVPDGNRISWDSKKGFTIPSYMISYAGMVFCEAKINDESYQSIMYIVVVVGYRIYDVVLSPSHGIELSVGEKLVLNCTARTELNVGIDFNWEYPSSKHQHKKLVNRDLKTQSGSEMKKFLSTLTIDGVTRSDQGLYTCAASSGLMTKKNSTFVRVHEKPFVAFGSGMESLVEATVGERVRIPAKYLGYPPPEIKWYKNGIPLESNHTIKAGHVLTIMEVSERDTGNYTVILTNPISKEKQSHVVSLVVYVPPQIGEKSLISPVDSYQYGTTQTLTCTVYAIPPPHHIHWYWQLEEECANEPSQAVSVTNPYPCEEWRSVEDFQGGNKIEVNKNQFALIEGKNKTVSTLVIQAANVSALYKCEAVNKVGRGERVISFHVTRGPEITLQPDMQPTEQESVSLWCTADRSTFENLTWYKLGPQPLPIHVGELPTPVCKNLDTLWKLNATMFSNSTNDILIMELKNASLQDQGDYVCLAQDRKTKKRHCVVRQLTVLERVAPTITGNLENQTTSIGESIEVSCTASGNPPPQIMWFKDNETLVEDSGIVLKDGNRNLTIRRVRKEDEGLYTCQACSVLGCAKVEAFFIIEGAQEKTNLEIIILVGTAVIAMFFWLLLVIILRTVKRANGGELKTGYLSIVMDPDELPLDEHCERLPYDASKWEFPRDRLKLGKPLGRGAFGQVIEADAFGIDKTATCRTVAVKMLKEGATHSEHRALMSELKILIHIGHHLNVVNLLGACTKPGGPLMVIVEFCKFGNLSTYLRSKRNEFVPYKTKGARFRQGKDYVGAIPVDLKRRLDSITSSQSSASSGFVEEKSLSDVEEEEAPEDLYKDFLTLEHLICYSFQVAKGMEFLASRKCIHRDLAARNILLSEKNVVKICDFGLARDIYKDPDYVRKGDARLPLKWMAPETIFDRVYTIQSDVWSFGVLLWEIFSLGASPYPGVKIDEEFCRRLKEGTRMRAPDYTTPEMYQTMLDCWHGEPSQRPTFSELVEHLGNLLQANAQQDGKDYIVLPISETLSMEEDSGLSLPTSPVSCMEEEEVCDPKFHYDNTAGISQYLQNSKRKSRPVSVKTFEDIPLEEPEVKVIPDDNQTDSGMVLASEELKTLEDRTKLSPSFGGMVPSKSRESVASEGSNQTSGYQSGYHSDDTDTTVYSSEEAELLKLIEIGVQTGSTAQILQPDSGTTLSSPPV

With `Cc1cc(-c2ccc3c(Oc4ccc(NC(=O)C5(C(=O)Nc6ccc(F)cc6)CC5)cc4)ccnc3c2)ccn1` [Compound 30, 1-N′-(4-Fluorophenyl)-1-N-[4-[7-(2-methylpyridin-4-yl)quinolin-4-yl]oxyphenyl]cyclopropane-1,1-dicarboxamide], the IC50 in test [1] and in test [2] was 10 to 100 nM each time.
For the compound `COCCn1cc(-c2ccc3c(Oc4ccc(NC(=O)C5(C(=O)Nc6ccc(F)cc6)CC5)cc4)ccnc3c2)cn1` [Compound 10, 1-N′-(4-Fluorophenyl)-1-N-[4-[7-[1-(2-methoxyethyl)pyrazol-4-yl]quinolin-4-yl]oxyphenyl]cyclopropane-1,1-dicarboxamide], the IC50 in test [1] is not above 10 nM; in test [2], 10 to 100 nM.
For the compound `O=C(Nc1ccc(F)cc1)C1(C(=O)Nc2ccc(Oc3ccnc4cc(-c5ccc[n+]([O-])c5)ccc34)cc2)CC1` [Compound 109, 1-N′-(4-Fluorophenyl)-1-N-[4-[7-(1-oxidopyridin-1-ium-3-yl)quinolin-4-yl]oxyphenyl]cyclopropane-1,1-dicarboxamide], the IC50 was 10 to 100 nM in test [1] and not above 10 nM in test [2].
As for `O=C(Nc1ccc(F)cc1)C1(C(=O)Nc2ccc(Oc3ccnc4cc(-c5cc6n(n5)CCC6)ccc34)cc2)CC1` [Compound 124, 1-N-[4-[7-(5,6-Dihydro-4H-pyrrolo[1,2-b]pyrazol-2-yl)quinolin-4-yl]oxyphenyl]-1-N′-(4-fluorophenyl)cyclopropane-1,1-dicarboxamide], the IC50 in test [1] and in test [2] was 10 to 100 nM throughout.
As to `O=C(Nc1ccc(F)cc1)C1(C(=O)Nc2ccc(Oc3ccnc4cc(-c5nnco5)ccc34)cc2)CC1` [Compound 73, 1-N′-(4-Fluorophenyl)-1-N-[4-[7-(1,3,4-oxadiazol-2-yl)quinolin-4-yl]oxyphenyl]cyclopropane-1,1-dicarboxamide], the IC50 in test [1] and in test [2] was 10 to 100 nM in each case.
Consider `O=C(Nc1ccc(F)cc1)C1(C(=O)Nc2ccc(Oc3ccnc4cc(-c5cnn(C(F)F)c5)ccc34)cc2)CC1` [Compound 13, 1-N-[4-[7-[1-(Difluoromethyl)pyrazol-4-yl]quinolin-4-yl]oxyphenyl]-1-N′-(4-fluorophenyl)cyclopropane-1,1-dicarboxamide], for which the IC50 is 10 to 100 nM in test [1] and not above 10 nM in test [2].
For the compound `Cc1cc(F)cc(C)c1NC(=O)C1(C(=O)Nc2ccc(Oc3ccnc4cc(-c5cnn(C)c5)ccc34)cc2)CC1` [Compound 82, 1-N′-(4-Fluoro-2,6-dimethylphenyl)-1-N-[4-[7-(1-methylpyrazol-4-yl)quinolin-4-yl]oxyphenyl]cyclopropane-1,1-dicarboxamide], the IC50 in test [1] is 10 to 100 nM; in test [2], more than 300 nM.

The IC50 is the concentration that gives 50% inhibition. A high value points to weaker potency in that assay.
